Experimental data from patent EP0178388A1, “Quinolinecarboxylic acid derivatives” (KYORIN PHARMACEUTICAL CO., LTD., priority 1984, dated 1986).
Converted amounts (≈) assume the structure as drawn. Where a name gives a salt, the structure may show the parent alone. Read-outs that look alike come from different tables or passages of the source.

How the values were obtained:
P. morganii IID 602 = experiment: In vitro antibacterial activity, MIC (standard strain); assay type: cell-based; details: Morganella morganii, IID602; P. morganii IID 602, 10^6 cells/ml, standard strain; read-out: MIC
[1] = system: Alcaligenes faecalis 0114002; experiment: as above; assay type: cell-based; details: Alcaligenes faecalis 0114002, 10^6 cells/ml
S. pyogenes IID 692 = experiment: as above; assay type: cell-based; details: Streptococcus pyogenes, IID692, S. pyogenes IID 692, 10^6 cells/ml
[2] = system: Klebsiella pneumoniae I-220S; experiment: as above; assay type: cell-based; details: I220S; Klebsiella pneumoniae I-220S, 10^6 cells/ml, standard strain; read-out: MIC
[3] = system: Enterobacter cloacae IID 977; experiment: as above; assay type: cell-based; details: IID977, Enterobacter cloacae IID 977, 10^6 cells/ml
K. pneumoniae KY(GN)6445 = experiment: as above; assay type: cell-based; details: K. pneumoniae KY(GN)6445, 10^6 cells/ml, standard strain
[4] = system: Escherichia coli NIHJ JC-2; experiment: as above; assay type: cell-based; details: NIHJJC2, Escherichia coli NIHJ JC-2, 10^6 cells/ml
P. aeruginosa IFO 12689 = experiment: as above; assay type: cell-based; details: standard strain
E. coli ATCC 10536 = experiment: as above; assay type: cell-based; details: Escherichia coli, ATCC10536; E. coli ATCC 10536, 10^6 cells/ml, standard strain; read-out: MIC
[5] = system: Salmonella enteritidis IID 604; experiment: as above; assay type: cell-based; details: Salmonella enterica; Salmonella enteritidis IID 604, 10^6 cells/ml, standard strain; read-out: MIC
S. faecalis IID 682 = experiment: as above; assay type: cell-based; details: Enterococcus faecalis, IID682, S. faecalis IID 682, 10^6 cells/ml
[6] = system: Citrobacter freundii IID 976; experiment: as above; assay type: cell-based; details: IID976; Citrobacter freundii IID 976, 10^6 cells/ml, standard strain; read-out: MIC
[7] = system: Proteus vulgaris IFO 3167; experiment: as above; assay type: cell-based; details: IFO3167; Proteus vulgaris IFO 3167, 10^6 cells/ml, standard strain; read-out: MIC
[8] = system: S. aureus IID 670 (Terajima); experiment: as above; assay type: cell-based; details: Staphylococcus aureus, IID670, 10^6 cells/ml
[9] = system: Yersinia enterocolitica IID 981; experiment: as above; assay type: cell-based; details: IID981; Yersinia enterocolitica IID 981, 10^6 cells/ml, standard strain; read-out: MIC
P. mirabilis IID 994 = experiment: as above; assay type: cell-based; details: Proteus mirabilis, IID994, P. mirabilis IID 994, 10^6 cells/ml
[10] = system: Bacillus subtilis PCI 219; experiment: as above; assay type: cell-based; details: PCI219; Bacillus subtilis PCI 219, 10^6 cells/ml, standard strain; read-out: MIC
[11] = system: Staphylococcus aureus 209 P; experiment: as above; assay type: cell-based; details: 10^6 cells/ml
[12] = system: Serratia marcescens IID 618; experiment: as above; assay type: cell-based
[13] = system: Acinetobacter anitratus IID 876; experiment: as above; assay type: cell-based; details: Acinetobacter calcoaceticus, IID876; Acinetobacter anitratus IID 876, 10^6 cells/ml, standard strain; read-out: MIC
S. pneumoniae IID 552 = experiment: as above; assay type: cell-based; details: Streptococcus pneumoniae, IID552, S. pneumoniae IID 552, 10^6 cells/ml
[14] = system: Streptococcus pyogenes S-8; experiment: as above; assay type: cell-based; details: S8, Streptococcus pyogenes S-8, 10^6 cells/ml
S. epidermidis IID 866 = experiment: as above; assay type: cell-based; details: Staphylococcus epidermidis, IID866, S. epidermidis IID 866, 10^6 cells/ml
Shigella sonnei IID 969 = experiment: as above; assay type: cell-based; details: IID969, Shigella sonnei IID 969, 10^6 cells/ml
Method: The in vitro antibacterial activity has been investigated, the minimun inhibitory concentration (MIC) was determined in accordance with the method recommended by Japan Society of Chemotherapy.

[15] = system: Pseudomonas aeruginosa V-1; experiment: as above; assay type: cell-based; details: V1; Pseudomonas aeruginosa V-1, 10^6 cells/ml, standard strain; read-out: MIC
S. pneumoniae S-4288 [16] = experiment: In vivo antibacterial activity against systemic infection in mice; parameters: species or system mice (ICR-S); details: Streptococcus pneumoniae, S4288; S. pneumoniae S-4288, mice (ICR-S), intraperitoneal infection, oral at 1 hour after infection, challenge dose 2.5 x 10^3 cfu/mouse; read-out: ED50
Method: Experiment 2 In vivo antibacterial activity against systemic infection in mice (ICR-S)
The infections were produced by intraperitoneal infection of a suspension of the bacterial culture corresponding to the germ studied. The product was administered orally at 1 hour after the infection. The 50% effective dose (ED50) which protects 50% of the animals from death caused by the infection was determined from the relation between dosage and survival rate.

S. pneumoniae S-4288 [17] = experiment: MIC against the infecting strain (Table 2); assay type: cell-based; details: Streptococcus pneumoniae, S4288; S. pneumoniae S-4288 (Table 2, part 4)

CC1CN(c2c(F)cc3c(=O)c(C(=O)O)cn(C4CC4)c3c2Cl)CC(C)N1 (stereo not shown) [Example 6, 8-Chloro-1-cyclopropyl-6-fluoro-1,4-dihydro-7-(3,5-dimethyl-1-piperazinyl)-4-oxoquinoline-3-carboxylic acid and its hydrochloride]
MIC (P. morganii IID 602): 0.2 µg/mL
MIC [1]: 0.78 µg/mL
MIC (S. pyogenes IID 692): 0.78 µg/mL
MIC [2]: 0.2 µg/mL
MIC [3]: 0.2 µg/mL
MIC (K. pneumoniae KY(GN)6445; Klebsiella pneumoniae, read-out: MIC): 0.05 µg/mL
MIC [4]: 0.05 µg/mL
MIC (P. aeruginosa IFO 12689; Pseudomonas aeruginosa, IFO12689, P. aeruginosa IFO 12689, 10^6 cells/ml, read-out: MIC): 3.13 µg/mL
MIC (E. coli ATCC 10536): 0.025 µg/mL
MIC [5]: 0.1 µg/mL
MIC (S. faecalis IID 682): 0.78 µg/mL
MIC [6]: 0.1 µg/mL
MIC [7]: 0.05 µg/mL
MIC [8]: 0.2 µg/mL
MIC [9]: 0.2 µg/mL
MIC (P. mirabilis IID 994): 0.1 µg/mL
MIC [10]: 0.05 µg/mL
MIC ([11]; read-out: MIC): 0.2 µg/mL
MIC ([12]; IID618, Serratia marcescens IID 618, 10^6 cells/ml, read-out: MIC): 0.2 µg/mL
MIC [13]: 0.1 µg/mL
MIC (S. pneumoniae IID 552): 0.78 µg/mL
MIC [14]: 0.39 µg/mL
MIC (S. epidermidis IID 866): 0.2 µg/mL
MIC (Shigella sonnei IID 969): 0.05 µg/mL
MIC [15]: 1.56 µg/mL

CC1CN(c2c(F)cc3c(=O)c(C(=O)O)cn(C4CC4)c3c2Cl)CCN1 (stereo not drawn) [Example 7, 8-Chloro-l-cyclopropyl-6-fluoro-l,4-dihydro-7-(3-methyl-l-piperazinyl)-4-oxoquinoline-3-carboxylic acid]
MIC (K. pneumoniae KY(GN)6445): 0.025 µg/mL (≈ 0.0658 µM)
MIC (P. aeruginosa IFO 12689; P. aeruginosa IFO 12689, 10^6 cells/ml, listed as Exp.7): 0.78 µg/mL (≈ 2.05 µM)
ED50 (S. pneumoniae S-4288 [16]): 15.6 mg/kg
MIC [11]: 0.10 µg/mL (≈ 0.263 µM)
MIC ([12]; Serratia marcescens IID 618, 10^6 cells/ml): 0.05 µg/mL (≈ 0.132 µM)
MIC (S. pneumoniae S-4288 [17]): 0.78 µg/mL (≈ 2.05 µM)
